# Target: LRRK2 Ser935 phosphorylation in SH-SY5Y cells over-expressing recombinant full length LRRK2 (Homo sapiens (Human), UniProt Q5S007)
# Assay: Recombinant cellular LRRK2 AlphaScreen assay
# Format: cell-based
# Conditions: 60 minutes, read-out: Recombinant cellular LRRK2 alphaScreen assay (pIC50) (converted)
# Excerpt: To determine the activity of compounds against LRRK2 kinase activity in cells, the observed LRRK2 kinase-dependent modulation of LRRK2 Ser 935 phosphorylation (Dzamko et al., 2010, Biochem. J. 430: 405-413) was utilized to develop a quantitative 384 well plate-based immunoassay of LRRK2 Ser935 phosphorylation in the human neuroblastoma cell line SH-SY5Y, engineered to over-express recombinant full length LRRK2 protein.
# A BacMam virus expressing full length recombinant LRRK2 was purchased from Invitrogen and amplified by inoculation of SF-9 cells at MOI 0.3 for 4-5 days in Sf-900 III SFM medium supplemented with 3% fetal bovine serum. Infected cell cultures were then centrifuged at 2000 g for 20 minutes, viral supernatant titer determined by anti-gp64 plaque assay and stored at 4° C.
# Affinity-purified anti-phospho LRRK2 Ser935 sheep polyclonal antibody (Dzamko et al., 2010, Biochem. J. 430: 405-413) was biotinylated by standard methods (PerkinElmer). Anti-LRRK2 rabbit polyclonal antibody was purchased from Novus Biologicals. AlphaScreen Protein A IgG Kit (including acceptor and donor beads) was purchased from Perkin Elmer.
# SH-SY5Y cells were grown in DMEM/F12 medium with 10% dialysed fetal bovine serum and harvested by treatment with 0.5% trypsin-EDTA for 5 minutes at 37° C. followed by centrifugation at 1000 rpm for 4 minutes. The cell pellet was resuspended in Opti-MEM reduced serum media (Invitrogen) at 200,000 cells/ml and mixed with the BacMam LRRK2 virus at M01=50. 50 μl cell solutions were then dispensed to each well of a 384-well plate and incubated at 37° C., 5% CO2 for 24 hours.
# Serial dilutions of test compounds were prepared in Opti-MEM reduced serum media (Invitrogen) and 5.6 ul transferred from compound plate to cell assay plate to achieve a top final assay concentration of 10 uM. DMSO was used in certain wells as controls. Cells were incubated at 37° C., 5% CO2 for 60 minutes. The medium was then removed and cells lysed by addition of 20 ul cell lysis buffer (Cell Signaling Technology) and incubation at 4° C. for 20 minutes. 10 ul of antibody/acceptor bead mix [( 1/1000 biotinylated-pS935 LRRK2 antibody, 1/1000 total-LRRK2 antibody, 1/100 Acceptor beads in AlphaScreen detection buffer (25 mM Hepes (pH 7.4), 0.5% Triton X-100, 1 mg/ml Dextran 500 and 0.1% BSA)] was then added to each well and plates incubated for 2 hours at ambient temperature in the dark. 10 μl of donor beads solution (1/33.3 donor beads in AlphaScreen detection buffer) was then added to each well. Following incubation for a further 2 hours at ambient temperature in the dark, plates were read on an EnVision™ plate reader at emission 520-620 nm with excitation 680 nm. Dose response curve data was based on sigmoidal dose-response model.
# Sequence of LRRK2 Ser935 phosphorylation in SH-SY5Y cells over-expressing recombinant full length LRRK2 (Q5S007 whole entry): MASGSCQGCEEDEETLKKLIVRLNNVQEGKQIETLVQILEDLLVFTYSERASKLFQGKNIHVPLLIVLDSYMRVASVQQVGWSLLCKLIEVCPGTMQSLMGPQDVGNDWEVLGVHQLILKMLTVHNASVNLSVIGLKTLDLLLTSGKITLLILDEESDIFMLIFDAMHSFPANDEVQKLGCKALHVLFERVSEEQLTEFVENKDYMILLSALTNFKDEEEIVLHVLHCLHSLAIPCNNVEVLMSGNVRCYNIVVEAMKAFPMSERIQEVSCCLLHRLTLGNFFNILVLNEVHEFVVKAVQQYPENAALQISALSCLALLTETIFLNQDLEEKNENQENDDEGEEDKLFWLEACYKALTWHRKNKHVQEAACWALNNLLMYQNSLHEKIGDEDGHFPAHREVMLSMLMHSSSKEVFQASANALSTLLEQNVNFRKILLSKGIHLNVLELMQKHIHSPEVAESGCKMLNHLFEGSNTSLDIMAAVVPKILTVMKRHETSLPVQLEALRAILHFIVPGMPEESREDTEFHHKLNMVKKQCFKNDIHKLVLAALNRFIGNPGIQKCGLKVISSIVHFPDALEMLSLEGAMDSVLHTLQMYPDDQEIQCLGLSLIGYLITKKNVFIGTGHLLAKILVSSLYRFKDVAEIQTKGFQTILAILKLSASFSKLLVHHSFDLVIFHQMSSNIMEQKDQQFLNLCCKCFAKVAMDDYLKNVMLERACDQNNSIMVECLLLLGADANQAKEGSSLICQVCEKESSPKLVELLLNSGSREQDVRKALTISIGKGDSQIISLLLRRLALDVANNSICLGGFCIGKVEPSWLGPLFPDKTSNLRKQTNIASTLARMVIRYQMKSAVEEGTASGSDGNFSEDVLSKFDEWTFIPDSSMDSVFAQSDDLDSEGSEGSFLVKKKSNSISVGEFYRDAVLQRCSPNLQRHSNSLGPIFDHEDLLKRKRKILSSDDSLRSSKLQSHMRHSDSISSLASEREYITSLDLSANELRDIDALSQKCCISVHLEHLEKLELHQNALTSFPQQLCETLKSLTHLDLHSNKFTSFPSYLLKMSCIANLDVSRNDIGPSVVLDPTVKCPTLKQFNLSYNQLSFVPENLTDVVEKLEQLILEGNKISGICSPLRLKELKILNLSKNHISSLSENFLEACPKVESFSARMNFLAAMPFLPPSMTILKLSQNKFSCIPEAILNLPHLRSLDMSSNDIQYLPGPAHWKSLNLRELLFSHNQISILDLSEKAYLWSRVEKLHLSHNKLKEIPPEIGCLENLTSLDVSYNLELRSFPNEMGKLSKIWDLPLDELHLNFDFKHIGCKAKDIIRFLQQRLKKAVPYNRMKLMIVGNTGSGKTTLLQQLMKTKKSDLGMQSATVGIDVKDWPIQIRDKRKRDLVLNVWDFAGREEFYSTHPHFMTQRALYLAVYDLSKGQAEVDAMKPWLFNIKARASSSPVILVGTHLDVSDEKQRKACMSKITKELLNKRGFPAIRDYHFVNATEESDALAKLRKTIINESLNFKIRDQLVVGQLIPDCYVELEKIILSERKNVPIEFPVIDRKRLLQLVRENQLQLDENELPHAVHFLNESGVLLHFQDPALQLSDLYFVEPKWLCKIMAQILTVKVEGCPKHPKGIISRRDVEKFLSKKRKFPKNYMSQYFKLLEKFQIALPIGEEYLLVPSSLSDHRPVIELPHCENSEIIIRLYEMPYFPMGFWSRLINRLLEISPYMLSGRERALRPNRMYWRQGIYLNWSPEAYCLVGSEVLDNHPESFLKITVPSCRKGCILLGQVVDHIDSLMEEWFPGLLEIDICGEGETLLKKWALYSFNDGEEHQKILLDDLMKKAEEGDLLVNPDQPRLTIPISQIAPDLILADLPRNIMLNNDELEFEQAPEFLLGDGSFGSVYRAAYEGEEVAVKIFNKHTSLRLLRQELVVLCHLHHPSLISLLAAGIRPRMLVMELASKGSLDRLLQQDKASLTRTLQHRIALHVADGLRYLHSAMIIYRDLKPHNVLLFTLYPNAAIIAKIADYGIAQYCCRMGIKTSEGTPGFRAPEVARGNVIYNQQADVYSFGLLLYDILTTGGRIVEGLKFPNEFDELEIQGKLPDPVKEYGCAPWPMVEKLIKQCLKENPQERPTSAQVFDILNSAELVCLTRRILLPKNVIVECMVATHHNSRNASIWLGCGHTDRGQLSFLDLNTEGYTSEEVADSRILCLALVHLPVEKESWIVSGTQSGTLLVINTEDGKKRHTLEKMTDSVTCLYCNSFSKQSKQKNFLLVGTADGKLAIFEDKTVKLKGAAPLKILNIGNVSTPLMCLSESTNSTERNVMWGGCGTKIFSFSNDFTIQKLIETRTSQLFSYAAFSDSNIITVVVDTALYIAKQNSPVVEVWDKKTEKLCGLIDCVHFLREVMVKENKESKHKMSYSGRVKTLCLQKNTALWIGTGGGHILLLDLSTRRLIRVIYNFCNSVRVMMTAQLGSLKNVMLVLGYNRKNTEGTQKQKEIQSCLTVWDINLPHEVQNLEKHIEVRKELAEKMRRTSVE
row,SMILES,IC50 [nM]
1,"CNC(=O)[C@H]1CN(c2cc(-n3ncc4cc(C)c(C5CCN(CCOC)CC5F)cc43)ncn2)CCO1 (single isomer, unassigned) [Example E29]",≤ 100
2,"Cc1nc(N2CCOC(C(C)O)C2)cc(-n2ncc3cc(C)c(C4CCN(C5COC5)CC4)cc32)n1 (single isomer, unassigned) [Example E268, 1-(4-(2-Methyl-6-(5-methyl-6-(1-(oxetan-3-yl)piperidin-4-yl)-1H-indazol-1-yl)pyrimidin-4-yl)morpholin-2-yl)ethanol]",≤ 100
3,"Cc1nc(N2CCO[C@@H](CO)C2)cc(-n2ncc3cc(C)c(C4CCCCO4)cc32)n1 (single isomer, unassigned) [Example E245]",> 10000
4,"Cc1nc(N2CC(OCCO)C2)cc(-n2ncc3cc(C)c([C@H]4CCN(C)C[C@H]4F)cc32)n1 (single isomer, unassigned) [Example E132, (cis)-2-((1-(6-(6-(3-Fluoro-1-methylpiperidin-4-yl)-5-methyl-1H-indazol-1-yl)-2-methylpyrimidin-4-yl)azetidin-3-yl)oxy)ethanol]",≤ 100
5,"COCCN1CCC(c2ncc3cnn(-c4ccnc(N5CCOCC5)c4)c3n2)C(F)C1 (single isomer, unassigned) [Example E76, (cis)-4-(4-(6-(3-Fluoro-1-(2-methoxyethyl)piperidin-4-yl)-1H-pyrazolo[3,4-d]pyrimidin-1-yl)pyridin-2-yl)morpholine]",> 10000
6,"Cc1nc(N2CC(O)C2)cc(-n2ncc3cc(C)c(C4CCCOC4)cc32)n1 (single isomer, unassigned) [Example E272, 1-(2-Methyl-6-(5-methyl-6-(tetrahydro-2H-pyran-3-yl)-1H-indazol-1-yl)pyrimidin-4-yl)azetidin-3-ol]",> 10000
7,"Cc1nc(N2CCO[C@@H](CO)C2)cc(-n2ncc3cc(C)c(C4CCOCC4F)cc32)n1 (single isomer, unassigned) [Example E250]",≤ 100
8,"CNC(=O)[C@@H]1CN(c2cc(-n3ncc4cc(C)c(C5CCN(C6COC6)CC5F)cc43)ncn2)CCO1 (single isomer, unassigned) [Example E34]",≤ 100
9,"Cc1nc(N2CC(O)C2)cc(-n2ncc3cc(C)c(C4CN(C)CCO4)cc32)n1 (single isomer, unassigned) [Example E228, 1-(2-M ethyl-6-(5-methyl-6-(4-methylmorpholin-2-yl)-1H-indazol-1-yl)pyrimidin-4-yl)azetidin-3-ol]",> 10000
10,"COc1nc(N2CC(OCCO)C2)cc(-n2ncc3cc(C)c(C4CCOCC4)cc32)n1 [Example E237, 2-((1-(2-Methoxy-6-(5-methyl-6-(tetrahydro-2H-pyran-4-yl)-1H-indazol-1-yl)pyrimidin-4-yl)azetidin-3-yl)oxy)ethanol]",≤ 100
11,"CNC(=O)[C@H]1CN(c2cc(-n3ncc4cc(C)c(C5CCN(C6COC6)CC5F)cc43)ncn2)CCO1 (single isomer, unassigned) [Example E35]",≤ 100
12,"CCN1CC[C@H](c2cc3c(cnn3-c3cc(N4CC(O)C4)nc(C)n3)cc2C)[C@H](F)C1 (single isomer, unassigned) [Example E146, (cis)-1-(6-(6-(1-Ethyl-3-fluoropiperidin-4-yl)-5-methyl-1H-indazol-1-yl)-2-methylpyrimidin-4-yl)azetidin-3-ol]",≤ 100
13,"CNC(=O)[C@@H]1CN(c2cc(-n3ncc4cc(C)c(C5CCN(CCOC)CC5F)cc43)ncn2)CCO1 (single isomer, unassigned) [Example E30]",≤ 100
14,"Cc1nc(N2CC(O)C2)cc(-n2ncc3cc(Cl)c(N4CCC(O)CC4)cc32)n1 [Example E258, 1-(5-Chloro-1-(6-(3-hydroxyazetidin-1-yl)-2-methylpyrimidin-4-yl)-1H-indazol-6-yl)piperidin-4-ol]",≤ 100
15,"Cc1nc(-n2ncc3cc(C)c(C4CCN(C5COC5)CC4F)cc32)cc([C@H]2C[C@@H](O)C2)n1 (single isomer, unassigned) [Example E44, (cis)-(1s,3s)-3-(6-(6-(3-Fluoro-1-(oxetan-3-yl)piperidin-4-yl)-5-methyl-1H-indazol-1-yl)-2-methylpyrimidin-4-yl)cyclobutanol]",≤ 100
16,"COc1nc(N2CC(O)C2)cc(-n2ncc3cc(C)c(C4CCN(C)C(=O)C4)cc32)n1 (single isomer, unassigned) [Example E87, 4-(1-(6-(3-Hydroxyazetidin-1-yl)-2-methoxypyrimidin-4-yl)-5-methyl-1H-indazol-6-yl)-1-methylpiperidin-2-one]",> 10000
17,"Cc1nc(N2CCO[C@H](CO)C2)cc(-n2ncc3cc(C)c(C4CCCCO4)cc32)n1 (single isomer, unassigned) [Example E271]",> 10000
18,"Cc1nc(N2CC(O)C2)cc(-n2ncc3cc(C)c(C4CCOCC4F)cc32)n1 (single isomer, unassigned) [Example E246, 1-(6-(6-(3-Fluorotetrahydro-2H-pyran-4-yl)-5-methyl-1H-indazol-1-yl)-2-methylpyrimidin-4-yl)azetidin-3-ol]",≤ 100

# Further lines, results first:
row,IC50 [nM],SMILES
1,≤ 100,"Cc1nc(N2CC(O)C2)cc(-n2ncc3cc(C)c(C4CCOCC4)cc32)n1 [Example E89, 1-(2-Methyl-6-(5-methyl-6-(tetrahydro-2H-pyran-4-yl)-1H-indazol-1-yl)pyrimidin-4-yl)azetidin-3-ol]"
2,> 10000,"Cc1nc(N2CCO[C@@H](CO)C2)cc(-n2ncc3cc(C)c(C4CCCOC4)cc32)n1 (single isomer, unassigned) [Example E240]"
3,≤ 100,"Cc1nc(N2CC[C@H](O)C2)cc(-n2ncc3cc(C)c(C4CCN(C)CC4F)cc32)n1 (single isomer, unassigned) [Example E128]"
4,> 10000,"Cc1cc2cnn(-c3cc(N4CCOCC4)nc(OC(C)C)n3)c2cc1C1CCN(C2COC2)CC1(F)F (single isomer, unassigned) [Example E25, 4-(6-(6-(3,3-Difluoro-1-(oxetan-3-yl)piperidin-4-yl)-5-methyl-1H-indazol-1-yl)-2-isopropoxypyrimidin-4-yl)morpholine]"
5,≤ 100,"CCOc1nc(N2CCOCC2)cc(-n2ncc3cc(C)c(C4CCN(C5COC5)CC4(F)F)cc32)n1 (single isomer, unassigned) [Example E24, 4-(6-(6-(3,3-Difluoro-1-(oxetan-3-yl)piperidin-4-yl)-5-methyl-1H-indazol-1-yl)-2-ethoxypyrimidin-4-yl)morpholine]"
6,≤ 100,"Cc1cc2cnn(-c3cc(N4CC(O)C4)nc(C4CC4)n3)c2cc1[C@H]1CCN(C)C[C@H]1F (single isomer, unassigned) [Example E46, (cis)-1-(2-Cyclopropyl-6-(6-(3-fluoro-1-methylpiperidin-4-yl)-5-methyl-1H-indazol-1-yl)pyrimidin-4-yl)azetidin-3-ol]"
7,> 10000,"CCc1nc(N2CCOCC2)cc(-n2ncc3cc(C)c(C4CCN(C)CC4(F)F)cc32)n1 (single isomer, unassigned) [Example E11, 4-(6-(6-(3,3-Difluoro-1-methylpiperidin-4-yl)-5-methyl-1H-indazol-1-yl)-2-ethylpyrimidin-4-yl)morpholine]"
8,> 10000,"Cc1cc2cnn(-c3cc(N4CCOCC4)nc(C#N)n3)c2cc1C1CCN(C)CC1(F)F (single isomer, unassigned) [Example E9, 4-(6-(3,3-Difluoro-1-methylpiperidin-4-yl)-5-methyl-1H-indazol-1-yl)-6-morpholinopyrimidine-2-carbonitrile]"
9,> 10000,"COc1nc(N2CC(O)C2)cc(-n2ncc3cc(C)c(C4CN(C)CCO4)cc32)n1 (single isomer, unassigned) [Example E229, 1-(2-Methoxy-6-(5-methyl-6-(4-methylmorpholin-2-yl)-1H-indazol-1-yl)pyrimidin-4-yl)azetidin-3-ol]"
10,> 10000,"COc1nc(N2CC(O)C2)cc(-n2ncc3cc(C)c(C4(F)CCCN(C)C4)cc32)n1 (single isomer, unassigned) [Example E221, 1-(6-(6-(3-Fluoro-1-methylpiperidin-3-yl)-5-methyl-1H-indazol-1-yl)-2-methoxypyrimidin-4-yl)azetidin-3-ol]"
